We go through 3 compounds from ChEMBL document CHEMBL1121398, “Synthetic modulators of the complement system. 1. Synthesis and biological activity of 5,5',5''-[1,3,6-naphthalenetriyltris(sulfonylimino)]-tris[1,3-benzenedisulfonic acid] hexasodium salt” (1980).

In brackets after ≈: the same amount, converted by molar mass.

Test [1] is described as follows: Inhibition of the complement alternative pathway by Mercaptan-treated human erythrocytes lyse in autologous serum via the alternative pathway activated by cobra venom factor in the presence of appropriate serial twofold dilutions of the test compound.
The species named for test [2] is Homo sapiens. Nature of the test: Ability to destroy fluid-phase human complement 1 in the presence of complement 4 with appropriate serial twofold dilutions of the test compound using C1 assay.
In test [3] the test system is Cavia porcellus. Nature of the test: Evaluated in vivo after intraperitoneal administration by guinea pig assay. The test is classed as functional.
The species named for test [4] is Cavia porcellus. Kind of test: Evaluated in vitro for complement activity using guinea pig serum was determined by cap 50 assay. The test is classed as functional. The following applies: for EC50: read-out: ED50 (the source's name).
The species named for test [5] is Homo sapiens. Nature of the test: The ability to inhibit late component of human complement (C3-C9) using C-late assay.

Consider `Cc1ccc(C(=O)Nc2ccc(S(=O)(=O)O)c3cc(S(=O)(=O)O)cc(S(=O)(=O)O)c23)cc1NC(=O)c1cccc(NC(=O)Nc2cccc(C(=O)Nc3cc(C(=O)Nc4ccc(S(=O)(=O)O)c5cc(S(=O)(=O)O)cc(S(=O)(=O)O)c45)ccc3C)c2)c1` [SURAMIN], for which the ED50 turned out to be 167 µg/mL in test [1], 21 µg/mL in the test filed under Homo sapiens [2] and 50 µg/mL (≈ 38.5 µM) in the test listed under Homo sapiens [5]. Also, the Inhibition (commonly how much of the control response was suppressed) with Cavia porcellus [3] was 44%. Further, the EC50 in the test filed under Cavia porcellus [4] was determined as 603 µg/mL (≈ 465 µM).

In the case of `Nc1ccc2cc(S(=O)(=O)[O-])cc(O)c2c1/N=N/c1ccc(NC(=O)Nc2ccc(/N=N/c3c(N)ccc4cc(S(=O)(=O)[O-])cc(O)c34)c(S(=O)(=O)[O-])c2)cc1S(=O)(=O)[O-].[Na+].[Na+].[Na+].[Na+]`, the ED50 in test [1] amounted to 167 µg/mL; in the test listed under Homo sapiens [2], 21 µg/mL; in the test listed under Homo sapiens [5] it was 6 µg/mL. The compound further returned an Inhibition in the test with Cavia porcellus [3] above 95%. Further, the Activity in the test listed under Cavia porcellus [4] turned out to be 113 µg/mL.

As to `O=S(=O)([O-])c1cc(NS(=O)(=O)c2ccc3c(S(=O)(=O)Nc4cc(S(=O)(=O)[O-])cc(S(=O)(=O)[O-])c4)cc(S(=O)(=O)Nc4cc(S(=O)(=O)[O-])cc(S(=O)(=O)[O-])c4)cc3c2)cc(S(=O)(=O)[O-])c1.[Na+].[Na+].[Na+].[Na+].[Na+].[Na+]`, the ED50 in test [1] stood at 21 µg/mL; in the test filed under Homo sapiens [2], 0.7 µg/mL; in the test filed under Homo sapiens [5] it was 12 µg/mL. The compound further displayed an Inhibition in the test with Cavia porcellus [3] of 86%. Moreover, in the test filed under Cavia porcellus [4], the EC50 amounted to 21 µg/mL.
